Measurements published in patent US20240166637A1, “COMPOUNDS AND METHODS FOR TREATING MALARIA” (Microbiotix, Inc., priority 2021, published 2024).
In brackets after ≈: the same amount, converted by molar mass. Like-named read-outs stand apart in the source and are kept apart here.

Experiments:
Caco-2 permeability = type: in vitro ADME; conditions: human, Caco-2; read-out: Papp, Caco-2 cell monolayer
Experimental: (§1) The Caco-2 assay is an indicator of the potential oral bioavailability of the inhibitor compound. Caco-2 cells were applied to wells of a collagen-coated BioCoat Cell Environment (BD Biosciences) plate as described (Duraisingh, M., and A. Cowman, Acta Trop., 94:181-190 (2005)). The test agent was added to the apical (A) side and the amount of permeation was determined on the basolateral (B) side by LC/MS/MS analysis. The amount of material on the A and B sides were used to calculate a Papp value (Caco-2 Papp).

CYP3A4 = CYP3A4 (Homo sapiens, UniProt P08684); assay: Cytochrome P450 inhibition, fluorogenic substrate assay; type: in vitro ADME
From the text: To measure Cytochrome P450 inhibition, a fluorogenic substrate assay was used to measure inhibitor compound interference with enzymes that metabolize drugs in vivo (Houston, J., Biochem. Pharmacol., 47:1469-1479 (1994)).

[1] = Protein binding in mouse serum by equilibrium dialysis; type: in vitro ADME
P. falciparum = assay: In vitro parasite growth inhibition in PGIM (SYBR Green I); type: cell-based
Experimental: P. falciparum laboratory lines were propagated at the asexual stage with standard methods, in RPMI 1640 medium supplemented with 25 mM HEPES, 31 mM NaHCO3, 0.37 mM hypoxanthine, 10 μg/ml gentamicin, and 10% pooled human serum. Nutrient deprivation experiments utilized standard PSAC Growth Inhibition Medium (PGIM) but with reduced concentrations of individual ingredients. Human serum was exhaustively dialyzed against distilled water before addition to those media. The PGIM contained reduced concentrations of isoleucine (11.4 μM), glutamine (102 μM), and hypoxanthine (3.01 μM) and was supplemented with the dialyzed human serum. Growth inhibition experiments (Burrows et al., Parasitology, 141:128-139 (2013)) were quantified by using a SYBR Green I-based fluorescence assay for parasite nucleic acid in 96-well microplates, as described previously (Dondorp et al., supra (2009)). Ring-stage synchronized cultures were seeded at 1% parasitemia and 2% hematocrit levels in standard medium or PGIM and were maintained for 72 hr at 37° C. in 5% O2/5% CO2 in nitrogen, without medium changes. Cultures were then lysed in 20 mM Tris, 10 mM EDTA, 0.016% saponin, 1.6% Triton X-100, pH 7.5, with SYBR Green I nucleic acid gel stain (Invitrogen, Carlsbad, CA) at 5000-fold dilution.
After a […] incubation, parasite DNA contents were quantified through fluorescence measurements (excitation, 485 nm; emission, 528 nm). Results were presented as IC50 values, defined as the concentration of inhibitor which decreases P. falciparum (Pf) DNA content by 50% (IC50 PGIM).

PSAC = assay: Transport inhibition assay: PSAC block by osmotic lysis of infected cells in sorbitol (transmittance); type: cell-based, P. falciparum; conditions: for PSAC K0.5: Table 6
Experimental: Transport experiments were conducted to examine the affinity of the inhibitor compounds for PSAC. Inhibitor affinity for blocking PSAC was determined using a quantitative transmittance assay which is based on the osmotic lysis of infected cells with sorbitol (Desai, S., and A. Pillai, U.S. Pat. No. 8,618,090, supra (2013); Dondorp et al., supra (2009); Hooft van Huijsduijnen, R., and T. N. Wells, supra (2018)). Malaria parasite cultures were enriched at the trophozoite stage via the Percoll-sorbitol method (Pillai et al., Mol. Pharmacol., 82:1104-1114 (2012); Pillai et al., Mol. Pharmacol., 77:724-733 (2010); Wagner et al., Biophys. J., 84:116-123 (2003)), washed, and resuspended at 37° C. and 0.15% hematocrit in 280 mM sorbitol, 20 mM Na-HEPES, 0.1 mg/ml bovine serum albumin, pH 7.4, with the indicated concentrations of inhibitor compounds. Osmotic lysis, resulting from PSAC-mediated sorbitol uptake, was continuously tracked with transmittance measurements through the cell suspension (700-nm wavelength, DU640 spectrophotometer with Peltier temperature control; Beckman Coulter, Fullerton, CA).
Inhibitor dose-response relationships (K0.5 values) were calculated from the times required to reach a fractional lysis threshold. K0.5 estimates obtained with the osmotic lysis assay match those obtained using cell-attached and whole-cell patch-clamp assays (Alkhalil et al., Blood, 104:4279-4286 (2004); Dondorp et al., N. Engl. J. Med., 361:455-467 (2009)), confirming a quantitatively robust and valid assay.

[2] = Solubility by nephelometric method; type: physicochemical
Experimental: The solubility of the inhibitor compounds was determined by the nephelometric method (Bevan, C., and R. Lloyd, supra (2000)). A high-throughput screening method for the determination of aqueous drug solubility using laser nephelometry in microtiter plates. The compounds were serially diluted in DMSO and then added to water. […] Additionally, to confirm the nephelometry results, compounds were stirred with a test vehicle (deionized water, PBS, or D5W) at 20° C. for 4 hours. Additional compound was added if complete dissolution was obtained. The mixture was then filtered and the filtrate assayed by HPLC to quantify the amount of compound in solution (Solubility).

Serum stability (MSS) = type: in vitro ADME; conditions: mouse serum exposure; for MSS % consumed: after 60 minutes
From the text: The microsome and serum stability assays measure the stability of the inhibitor compounds when exposed to the liver and to serum in vivo. For serum stability, inhibitor compounds were exposed to 55% mouse serum and the resulting samples analyzed by LC/MS to quantitate the remaining parent. […]

[3] = Microsome stability (MLMS); type: in vitro ADME, mouse; conditions: murine liver microsomes; for MLMS % consumed: after 30 min.
Experimental: The microsome and serum stability assays measure the stability of the inhibitor compounds when exposed to the liver and to serum in vivo. For microsomal stability measurements, inhibitor compounds were incubated with mouse microsomal proteins in buffer with NADPH (Bevan, C. and R. Lloyd, Anal. Chem., 72:1781-1787 (2000)) and the resulting samples were analyzed by LC/MS to quantitate the remaining parent. The data are calculated as percent of parent remaining.

human HeLa cells = assay: Mammalian cytotoxicity, HeLa cells, 72 hr, MTS; type: cell-based
Experimental: (§2) Cytotoxicity of the inhibitor compounds was quantified using human HeLa cells (CLL-2; American Type Culture Collection, Manassas, VA) seeded at 4000 cells/well in 96-well plates. Cultures were incubated with individual inhibitor compounds for 72 hr at 37° C. in minimal essential medium (Invitrogen) supplemented with 10% fetal calf serum.

[4] = Mammalian cytotoxicity, HeLa cells, 72 hr, MTS; type: cell-based, human; conditions: human, HeLa cells; for CC50 at 72 h: 3 days
Experimental: as §2

Caco-2 cells = assay: Caco-2 permeability; type: in vitro ADME; conditions: apical to basolateral
Experimental: as §1

[5] = test system: P. falciparum Pf3D70087/N9; assay: Murine efficacy, humanized NSG mouse model infected with P. falciparum; type: in vivo
Experimental: (§3) Tolerability. […] Pharmacokinetics (PK). […] PK parameters were calculated using the WinNonLin program. Efficacy.
In a second study, NSG mice were treated with either 25 mg/kg or 50 mg/kg of MBX 4055 either once or twice daily for 4 days by the oral route. […] Percent parasitemia was measured daily for 5 days as were the plasma levels of MBX 3318 and 4055.
Humanized NSG mice infected with P. falciparum were treated with 100 mg/kg of MBX 3318 twice daily for 4 days by the PO route. Control mice were treated with vehicle alone (10% DMSO, 80% PEG400, 1% Polysorbate 80). […] During the assay, blood samples were taken from mice treated with MBX 3318 to measure the levels of compound (FIG. 2B).
The murine model was also employed against MBX 4055. Humanized NSG mice infected with P. falciparum were treated with 25 or 50 mg/kg of MBX 4055 twice daily or 50 mg/kg once daily, for 4 days by the PO route. […] Unfortunately, the remaining mice that were dosed twice daily, including the vehicle-only mouse died within 2-5 days due to the apparent toxicity of the Labrasol-containing vehicle. During the assay, blood samples were taken from mice treated with MBX 4055 to measure the levels of compound (FIG. 3B).

[6] = mouse, in vivo
Experimental: as §3

CD-1 mice = assay: Murine tolerability; conditions: not dose-related, considered formulation-related
Experimental: Tolerability. The test compounds were dissolved at concentrations of 1 to 10 mg/mL in various formulations (5% DMSO, 5% cremophor, 80% PEG-300 or 10% DMSO, 80% PEG-400, 1% Polysorbate 80). Male CD-1 mice were dosed with 4 dose levels of each test compound (vehicle control plus 3 dose levels ranging from 10-200 mg/kg as described in Table 8) of test compound by the intravenous (IV), intraperitoneal (IP) or oral (PO) route. Clinical observations described in Table 8 were made at various time points out to 24 hours after which mice were humanely euthanized.
Animals were monitored for 24 hours for signs of toxicity.

[7] = mouse serum, equilibrium dialysis

Chain of CYP3A4 (P08684 whole entry, species assumed): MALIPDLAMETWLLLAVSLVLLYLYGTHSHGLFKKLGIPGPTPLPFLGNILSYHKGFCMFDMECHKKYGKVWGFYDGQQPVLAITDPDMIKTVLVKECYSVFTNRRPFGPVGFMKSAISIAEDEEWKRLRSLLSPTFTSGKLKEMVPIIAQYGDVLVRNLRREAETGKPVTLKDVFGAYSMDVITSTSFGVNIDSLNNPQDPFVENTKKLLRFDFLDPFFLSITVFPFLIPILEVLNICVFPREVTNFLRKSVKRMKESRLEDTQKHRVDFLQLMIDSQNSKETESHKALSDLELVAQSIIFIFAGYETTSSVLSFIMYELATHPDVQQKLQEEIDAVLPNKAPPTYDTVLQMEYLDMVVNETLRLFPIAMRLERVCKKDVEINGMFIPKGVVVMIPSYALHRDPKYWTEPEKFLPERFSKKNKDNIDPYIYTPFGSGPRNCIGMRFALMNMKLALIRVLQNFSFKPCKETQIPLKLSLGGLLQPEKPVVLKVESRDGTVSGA

Compound: Cc1ccc(C)c(N2CCN(S(=O)(=O)c3ccc(-c4ccc(=O)[nH]n4)s3)CC2)c1 [ISG-21, reference compound]
- Papp A→B (Caco-2 permeability): < 0.5 ×10⁻⁶ cm/s
- Cyp 3A4 % inhib. at 5 μM (CYP3A4): 0 % inhib.
- inhibition at 5 µM (CYP3A4; human, Table 4, read-out: Cyp 3A4 % Inhib): 0%
- binding by serum proteins [1]: highly bound by serum proteins
- Mouse PB % bound [1, 7]: 100 % bound
- fraction unbound ([1]; mouse serum, equilibrium dialysis, Table 4, read-out: PPB, percent protein bound): 0.001
- IC50 (P. falciparum; Plasmodium falciparum, Pf growth inhibition in PGIM, 72 hr, read-out: IC50 PGIM): 2 nM
- IC50 (P. falciparum; Plasmodium falciparum, Table 3, read-out: IC50, Pf growth inhibition in PGIM): 2 nM
- K0.5, activity in the PSAC assay (PSAC; Table 3): 0.003 µM
- PSAC K0.5 (PSAC): 0.003 µM
- solubility ([2]; water, kinetic from dmso stock, H2O, Table 4, read-out: Sol., solubility limit in H2O): 25 µM (≈ 10.8 µg/mL)
- MSS (% cons) (Serum stability (MSS); % consumed after 60 minutes, Table 4): 0 % cons
- MSS % consumed (Serum stability (MSS)): 0 % consumed
- MLMS (% cons) ([3]; % consumed after 30 min., Table 4): 17 % cons
- MLMS % consumed [3]: 17 % consumed
- SI CC50/PSAC K0.5 (human HeLa cells; HeLa CC50 / PSAC K0.5): 28,700
- CC50 at 72 h ([4]; Table 3, read-out: CC50, cytotoxicity against HeLa cells): 86000 nM
- selectivity ratio at 72 h ([4]; HeLa CC50 divided by growth inhibition IC50): 37000

Compound: N#Cc1ccncc1N1CCN(C(=O)c2ccc(C(=O)N3CCCC3)s2)CC1 [MBX-4075]
- PSAC K0.5 (PSAC): 1.08 µM
- CC50 (human HeLa cells): > 200000 nM
- SI CC50/PSAC K0.5 (human HeLa cells): >185

Compound: Cc1nccnc1N1CCN(S(=O)(=O)c2ccc(-c3ccc(=O)[nH]n3)s2)CC1 [MBX-4055]
- Caco-2 Papp (Caco-2 cells): 7.8 ×10⁻⁶ cm/s
- reduction of parasite growth with respect to control mice ([5]; humanized NSG mouse, 50 mg/kg once daily for 4 days, PO): over 90%
- blood levels of compound compared with IC50 in vitro ([5]; infected NSG mice treated with MBX 4055 PO, FIG. 3B): well above the IC50 in vitro
- Cyp 3A4 % inhib. at 5 μM (CYP3A4): 0 % inhib.
- Mouse PB % bound [1, 7]: 94 % bound
- IC50 (P. falciparum; Pf growth inhibition in PGIM, 72 hr, read-out: IC50 PGIM): 42 nM
- PSAC K0.5 (PSAC): 0.021 µM
- solubility ([2]; solubility limit in H2O, read-out: Solubility): 25 µM (≈ 10.5 µg/mL)
- MSS % consumed (Serum stability (MSS)): 5 % consumed
- % F (oral bioavailability) [6]: 66%
- half-lives (FIG. 1, clearance rates) [6]: favorable half-lives
- AUClast ([6]; iv, 10 mg/kg): 34,275 hr*ng/mL
- Clearance ([6]; iv, 10 mg/kg): 6.53 mL/min/kg
- Half-life ([6]; iv, 10 mg/kg): 1.39 h
- Mean residence time ([6]; iv, 10 mg/kg): 1.35 h
- VD ([6]; iv, 10 mg/kg): 0.786 L/kg
- increase in normalized exposure relative to MBX 3318 ([6]; po): > 30 fold
- AUClast ([6]; po, 30 mg/kg): 67,501 hr*ng/mL
- Cmax ([6]; po, 30 mg/kg): 11,733 ng/mL
- Half-life ([6]; po, 30 mg/kg): 2.27 h
- Normalized AUC ([6]; po, 30 mg/kg): 22,500
- Tmax ([6]; po, 30 mg/kg): 1 h
- MLMS % consumed [3]: 47 % consumed
- CC50 (human HeLa cells; 3 days, Table 6, read-out: HeLa CC50): > 200000 nM
- SI CC50/PSAC K0.5 (human HeLa cells; HeLa CC50 / PSAC K0.5): >9,524
- signs of toxicity, PO dosing (CD-1 mice): some slight lethargy

Compound: N#Cc1cccnc1N1CCN(S(=O)(=O)c2ccc(-c3ccc(=O)[nH]n3)s2)CC1 [MBX-2997, 2-(4-((5-(6-oxo-1,6-dihydropyridazin-3-yl)thiophen-2-yl)sulfonyl)piperazin-1-yl)nicotinonitrile]
- IC50 (P. falciparum; Plasmodium falciparum, 72 h, read-out: IC50 PGIM): 38 nM
- PSAC K0.5 (PSAC): 0.007 µM
- solubility ([2]; water, kinetic from dmso stock, solubility limit in H2O, read-out: Solubility): 25 µM (≈ 10.7 µg/mL)
- SI CC50/PSAC K0.5 (human HeLa cells; HeLa CC50 / PSAC K0.5): >28,500
- CC50 at 72 h ([4]; Table 6, read-out: HeLa CC50): > 200000 nM
